Measured values reported in ChEMBL document CHEMBL3763020, “Tetramethylpyrazine improves the recovery of spinal cord injury via Akt/Nrf2/HO-1 pathway” (2016).
Active and inactive are the calls of the source.

Experiments:
Rattus norvegicus [1] = assay: Neuroprotective activity in Sprague-Dawley rat model of spinal cord injury assessed as increase in Akt phosphorylation at 200 mg/kg, ip by Western blot analysis; type: functional, organism-based
Rattus norvegicus [2] = assay: Neuroprotective activity in Sprague-Dawley rat model of spinal cord injury assessed as decrease in IL1-beta levels in spinal cord tissue at 200 mg/kg, ip by ELISA in presence of Akt inhibitor LY294002; type: functional, organism-based
Rattus norvegicus [3] = assay: Neuroprotective activity in Sprague-Dawley rat model of spinal cord injury assessed as decrease in activated caspase-3 level at 200 mg/kg, ip; type: functional, organism-based
Rattus norvegicus [4] = assay: Induction of Nrf2 binding to HO-1 promoter in Sprague-Dawley rat model of spinal cord injury at 200 mg/kg, ip by chromatin immunoprecipitation assay; type: functional, organism-based
Rattus norvegicus [5] = assay: Neuroprotective activity in Sprague-Dawley rat model of spinal cord injury assessed as decrease in activated caspase-9 level at 200 mg/kg, ip; type: functional, organism-based
Rattus norvegicus [6] = assay: Neuroprotective activity in Sprague-Dawley rat model of spinal cord injury assessed as accumulation at G0/G1 phase at 200 mg/kg, ip by TUNEL staining-based flow cytometric analysis in presence of Akt inhibitor LY294002 (reference value: 34.1 %); type: functional
Rattus norvegicus [7] = assay: Neuroprotective activity in Sprague-Dawley rat model of spinal cord injury assessed as decrease in Evans blue leakage in spinal cord tissue at 200 mg/kg, ip after 24 hrs in presence of Akt inhibitor LY294002; type: functional, organism-based
Rattus norvegicus [8] = assay: Neuroprotective activity in Sprague-Dawley rat model of spinal cord injury assessed as decrease in IL-18 levels in spinal cord tissue at 200 mg/kg, ip by ELISA in presence of 25 umol/kg of HO-1 inhibitor ZnPP; type: functional, organism-based
Rattus norvegicus [9] = assay: Neuroprotective activity in Sprague-Dawley rat model of spinal cord injury assessed as decrease in activated caspase-3 level at 200 mg/kg, ip in presence of Akt inhibitor LY294002; type: functional, organism-based
Rattus norvegicus [10] = assay: Neuroprotective activity in Sprague-Dawley rat model of spinal cord injury assessed as increase in glutathione level at 200 mg/kg, ip by reduced glutathione assay; type: functional, organism-based
Rattus norvegicus [11] = assay: Neuroprotective activity in Sprague-Dawley rat model of spinal cord injury assessed as increase in Akt phosphorylation at 200 mg/kg, ip by western blot analysis in presence of 25 umol/kg of HO-1 inhibitor ZnPP; type: functional, organism-based
Rattus norvegicus [12] = assay: Neuroprotective activity in Sprague-Dawley rat model of spinal cord injury assessed as decrease in IL-18 levels in spinal cord tissue at 200 mg/kg, ip by ELISA; type: functional, organism-based
Rattus norvegicus [13] = assay: Neuroprotective activity in Sprague-Dawley rat model of spinal cord injury assessed as increase in Nrf2 mRNA expression at 200 mg/kg, ip by real time PCR method in presence of 25 umol/kg of HO-1 inhibitor ZnPP; type: functional, organism-based
Rattus norvegicus [14] = assay: Neuroprotective activity in Sprague-Dawley rat model of spinal cord injury assessed as decrease in Evans blue leakage in spinal cord tissue at 200 mg/kg, ip after 24 hrs; type: functional, organism-based
Rattus norvegicus [15] = assay: Neuroprotective activity in Sprague-Dawley rat model of spinal cord injury assessed as increase in superoxide dismutase activity at 200 mg/kg, ip in presence of 25 umol/kg of HO-1 inhibitor ZnPP; type: functional, organism-based
Rattus norvegicus [16] = assay: Neuroprotective activity in Sprague-Dawley rat model of spinal cord injury assessed as increase in HO-1 mRNA expression at 200 mg/kg, ip by real time PCR method in presence of Akt inhibitor LY294002; type: functional, organism-based
Rattus norvegicus [17] = assay: Neuroprotective activity in Sprague-Dawley rat model of spinal cord injury assessed as decrease in IL1-beta levels in spinal cord tissue at 200 mg/kg, ip by ELISA in presence of 25 umol/kg of HO-1 inhibitor ZnPP; type: functional, organism-based
Rattus norvegicus [18] = assay: Neuroprotective activity in Sprague-Dawley rat model of spinal cord injury assessed as accumulation at G0/G1 phase at 200 mg/kg, ip by TUNEL staining-based flow cytometric analysis (reference value: 34.1 %); type: functional
Rattus norvegicus [19] = assay: Neuroprotective activity in Sprague-Dawley rat model of spinal cord injury assessed as accumulation at G0/G1 phase at 200 mg/kg, ip by TUNEL staining-based flow cytometric analysis in presence of 25 umol/kg of HO-1 inhibitor ZnPP (reference value: 34.1 %); type: functional
Rattus norvegicus [20] = assay: Neuroprotective activity in Sprague-Dawley rat model of spinal cord injury assessed as increase in HO-1 mRNA expression at 200 mg/kg, ip by real time PCR method; type: functional, organism-based
Rattus norvegicus [21] = assay: Neuroprotective activity in Sprague-Dawley rat model of spinal cord injury assessed as decrease in TNF-alpha levels in spinal cord tissue at 200 mg/kg, ip by ELISA in presence of Akt inhibitor LY294002; type: functional, organism-based
Rattus norvegicus [22] = assay: Neuroprotective activity in Sprague-Dawley rat model of spinal cord injury assessed as increase in superoxide dismutase activity at 200 mg/kg, ip in presence of Akt inhibitor LY294002; type: functional, organism-based
Rattus norvegicus [23] = assay: Neuroprotective activity in Sprague-Dawley rat model of spinal cord injury assessed as increase in Akt phosphorylation at 200 mg/kg, ip by western blot analysis in presence of Akt inhibitor LY294002; type: functional, organism-based
Rattus norvegicus [24] = assay: Neuroprotective activity in Sprague-Dawley rat model of spinal cord injury assessed as locomotor function recovery at 200 mg/kg, ip measured during 3 to 28 days in presence of 25 umol/kg of HO-1 inhibitor ZnPP; type: functional, organism-based
Rattus norvegicus [25] = assay: Neuroprotective activity in Sprague-Dawley rat model of spinal cord injury assessed as decrease in Evans blue leakage in spinal cord tissue at 200 mg/kg, ip after 48 hrs in presence of 25 umol/kg of HO-1 inhibitor ZnPP; type: functional, organism-based
Rattus norvegicus [26] = assay: Induction of Nrf2 binding to HO-1 promoter in Sprague-Dawley rat model of spinal cord injury at 200 mg/kg, ip by chromatin immunoprecipitation assay in presence of 25 umol/kg of HO-1 inhibitor ZnPP; type: functional, organism-based
Rattus norvegicus [27] = assay: Neuroprotective activity in Sprague-Dawley rat model of spinal cord injury assessed as increase in Nrf2 mRNA expression at 200 mg/kg, ip by real time PCR method; type: functional, organism-based
Rattus norvegicus [28] = assay: Neuroprotective activity in Sprague-Dawley rat model of spinal cord injury assessed as decrease in TNF-alpha levels in spinal cord tissue at 200 mg/kg, ip by ELISA in presence of 25 umol/kg of HO-1 inhibitor ZnPP; type: functional, organism-based
Rattus norvegicus [29] = assay: Neuroprotective activity in Sprague-Dawley rat model of spinal cord injury assessed as increase in glutathione level at 200 mg/kg, ip by reduced glutathione assay in presence of 25 umol/kg of HO-1 inhibitor ZnPP; type: functional, organism-based
Rattus norvegicus [30] = assay: Neuroprotective activity in Sprague-Dawley rat model of spinal cord injury assessed as decrease in TNF-alpha levels in spinal cord tissue at 200 mg/kg, ip by ELISA; type: functional, organism-based
Rattus norvegicus [31] = assay: Neuroprotective activity in Sprague-Dawley rat model of spinal cord injury assessed as decrease in IL-18 levels in spinal cord tissue at 200 mg/kg, ip by ELISA in presence of Akt inhibitor LY294002; type: functional, organism-based
Rattus norvegicus [32] = assay: Neuroprotective activity in Sprague-Dawley rat model of spinal cord injury assessed as decrease in thiobarbituric acid reactive substances level at 200 mg/kg, ip by malondialdehyde assay in presence of 25 umol/kg of HO-1 inhibitor ZnPP; type: functional, organism-based
Rattus norvegicus [33] = assay: Neuroprotective activity in Sprague-Dawley rat model of spinal cord injury assessed as increase in Nrf2 mRNA expression at 200 mg/kg, ip by real time PCR method in presence of Akt inhibitor LY294002; type: functional, organism-based
Rattus norvegicus [34] = assay: Neuroprotective activity in Sprague-Dawley rat model of spinal cord injury assessed as decrease in Evans blue leakage in spinal cord tissue at 200 mg/kg, ip after 48 hrs; type: functional, organism-based
Rattus norvegicus [35] = assay: Neuroprotective activity in Sprague-Dawley rat model of spinal cord injury assessed as decrease in activated caspase-3 level at 200 mg/kg, ip in presence of 25 umol/kg of HO-1 inhibitor ZnPP; type: functional, organism-based
Rattus norvegicus [36] = assay: Neuroprotective activity in Sprague-Dawley rat model of spinal cord injury assessed as increase in HO-1 mRNA expression at 200 mg/kg, ip by real time PCR method in presence of 25 umol/kg of HO-1 inhibitor ZnPP; type: functional, organism-based
Rattus norvegicus [37] = assay: Neuroprotective activity in Sprague-Dawley rat model of spinal cord injury assessed as decrease in IL1-beta levels in spinal cord tissue at 200 mg/kg, ip by ELISA; type: functional, organism-based
Rattus norvegicus [38] = assay: Neuroprotective activity in Sprague-Dawley rat model of spinal cord injury assessed as decrease in thiobarbituric acid reactive substances level at 200 mg/kg, ip by malondialdehyde assay; type: functional, organism-based
Rattus norvegicus [39] = assay: Neuroprotective activity in Sprague-Dawley rat model of spinal cord injury assessed as locomotor function recovery at 200 mg/kg, ip measured during 3 to 28 days in presence of Akt inhibitor LY294002; type: functional, organism-based
Rattus norvegicus [40] = assay: Neuroprotective activity in Sprague-Dawley rat model of spinal cord injury assessed as increase in glutathione level at 200 mg/kg, ip by reduced glutathione assay in presence of Akt inhibitor LY294002; type: functional, organism-based
Rattus norvegicus [41] = assay: Neuroprotective activity in Sprague-Dawley rat model of spinal cord injury assessed as increase in superoxide dismutase activity at 200 mg/kg, ip; type: functional, organism-based
Rattus norvegicus [42] = assay: Neuroprotective activity in Sprague-Dawley rat model of spinal cord injury assessed as decrease in Evans blue leakage in spinal cord tissue at 200 mg/kg, ip after 24 hrs in presence of 25 umol/kg of HO-1 inhibitor ZnPP; type: functional, organism-based
Rattus norvegicus [43] = assay: Neuroprotective activity in Sprague-Dawley rat model of spinal cord injury assessed as decrease in thiobarbituric acid reactive substances level at 200 mg/kg, ip by malondialdehyde assay in presence of Akt inhibitor LY294002; type: functional, organism-based
Rattus norvegicus [44] = assay: Neuroprotective activity in Sprague-Dawley rat model of spinal cord injury assessed as decrease in activated caspase-9 level at 200 mg/kg, ip in presence of Akt inhibitor LY294002; type: functional, organism-based
Rattus norvegicus [45] = assay: Induction of Nrf2 binding to HO-1 promoter in Sprague-Dawley rat model of spinal cord injury at 200 mg/kg, ip by chromatin immunoprecipitation assay in presence of Akt inhibitor LY294002; type: functional, organism-based
Rattus norvegicus [46] = assay: Neuroprotective activity in Sprague-Dawley rat model of spinal cord injury assessed as decrease in activated caspase-9 level at 200 mg/kg, ip in presence of 25 umol/kg of HO-1 inhibitor ZnPP; type: functional, organism-based
Rattus norvegicus [47] = assay: Neuroprotective activity in Sprague-Dawley rat model of spinal cord injury assessed as locomotor function recovery at 200 mg/kg, ip measured during 3 to 28 days; type: functional, organism-based
Rattus norvegicus [48] = assay: Neuroprotective activity in Sprague-Dawley rat model of spinal cord injury assessed as decrease in Evans blue leakage in spinal cord tissue at 200 mg/kg, ip after 48 hrs in presence of Akt inhibitor LY294002; type: functional, organism-based

Measured: Activity

Cc1nc(C)c(C)nc1C [LIGUSTRAZINE]
16.2%: Rattus norvegicus [6]
inactive: Rattus norvegicus [2] | Rattus norvegicus [7] | Rattus norvegicus [8] | Rattus norvegicus [9] | Rattus norvegicus [15] | Rattus norvegicus [16] | Rattus norvegicus [17] | Rattus norvegicus [21] | Rattus norvegicus [22] | Rattus norvegicus [24] | Rattus norvegicus [25] | Rattus norvegicus [28] | Rattus norvegicus [29] | Rattus norvegicus [31] | Rattus norvegicus [32] | Rattus norvegicus [33] | Rattus norvegicus [35] | Rattus norvegicus [36] | Rattus norvegicus [39] | Rattus norvegicus [40] | Rattus norvegicus [42] | Rattus norvegicus [43] | Rattus norvegicus [44] | Rattus norvegicus [45] | Rattus norvegicus [46] | Rattus norvegicus [48]
8%: Rattus norvegicus [18]
15%: Rattus norvegicus [19]
active: Rattus norvegicus [1] | Rattus norvegicus [3] | Rattus norvegicus [4] | Rattus norvegicus [5] | Rattus norvegicus [10] | Rattus norvegicus [11] | Rattus norvegicus [12] | Rattus norvegicus [13] | Rattus norvegicus [14] | Rattus norvegicus [20] | Rattus norvegicus [23] | Rattus norvegicus [26] | Rattus norvegicus [27] | Rattus norvegicus [30] | Rattus norvegicus [34] | Rattus norvegicus [37] | Rattus norvegicus [38] | Rattus norvegicus [41] | Rattus norvegicus [47]
